For three compounds, ΔTm, K and Activity results are on record in ChEMBL document CHEMBL1143203, “Targeting the inverted CCAAT Box-2 of the topoisomerase IIalpha gene: DNA sequence selective recognition by a polyamide-intercalator as a staggered dimer” (Bioorg Med Chem, 2008).

Activity calls are given as the source filed them. The calls are words filed in the database; no cut-off is given here.

In assay [1] the test system is Nucleic Acid. The assay is described as follows: Binding affinity to topoisomerase 2-alpha promoter AAGCTA DNA by thermal denaturation assay. The class given is nucleic-acid assay.
Assay [2] relates to Nucleic Acid. Put plainly: Binding affinity to topoisomerase 2-alpha promoter AAATTT 12 bp DNA by thermal denaturation assay. The class given is nucleic-acid assay.
A short description of assay [3]: Binding affinity to biotinylated ACGCGT DNA.
Assay [4] is described as follows: Binding affinity to biotinylated AAGCTT DNA.
Assay [5] can be described thus: Binding affinity to biotinylated AAATTT DNA.
Assay [6] in a line: Inhibition of NF-Y binding to 5'-[32P]ICB2-containing DNA fragment at 50 uM after 2 hrs by electrophoretic mobility shift assay. In general terms: Mobility shift assays separate free from complexed probe on a gel.
Another assay deals with NIH3T3. The assay is described as follows: Induction of topoisomerase 2-alpha expression in mouse NIH3T3 cells at 10 uM after 24 hrs by Western blotting assay. The class given is functional, cell-based.
Assay [7] has as its system Nucleic Acid. Put plainly: Binding affinity to topoisomerase 2alpha promoter ATGCAT DNA by thermal denaturation assay. The class given is nucleic-acid assay.
Assay [8] deals with Nucleic Acid. Put plainly: Binding affinity to topoisomerase 2alpha promoter AAATTT 11 bp DNA by thermal denaturation assay. The class given is nucleic-acid assay.
Assay [9] deals with Nucleic Acid. Put plainly: Binding affinity to topoisomerase 2alpha promoter AAATTT 10 bp DNA by thermal denaturation assay. The class given is nucleic-acid assay.

For the compound `CN(CCCNC(=O)CCCCCCCN1C(=O)c2cccc3cccc(c23)C1=O)CCCNC(=O)c1cc(NC(=O)c2cc(NC(=O)c3nc(NC=O)cn3C)cn2C)cn1C`, the ΔTm was found to be 8.4 °C with Nucleic Acid [1] and 3.8 °C with Nucleic Acid [2]. The K was 2.8 10^5/M in assay [3], 5.6 10^6/M in [4] and 1.5 10^5/M in assay [5]. Moreover, the outcome (in assay [6]; with NIH3T3) was Active.

For `CN(C)CCCNC(=O)c1cc(NC(=O)c2cc(NC(=O)c3nc(NC=O)cn3C)cn2C)cn1C`, the shift in melting temperature (ΔTm) in the assay on Nucleic Acid [1] is 5.1 °C; in the assay on Nucleic Acid [7], 11 °C; in the assay on Nucleic Acid [8] it was 3.5 °C. Further, the figures for the K in assay [3], in [4] and in assay [5] were 9.5 10^4/M, 5.5 10^6/M and 4.7 10^5/M, respectively. Further, the outcome in assay [6] was inactive.

For the compound `CN(CCCN)CCCNC(=O)c1cc(NC(=O)c2cc(NC(=O)c3nc(NC=O)cn3C)cn2C)cn1C`, the ΔTm in the assay on Nucleic Acid [1] was above 22 °C; with Nucleic Acid [9], 10 °C.

The ΔTm is the shift of the melting midpoint relative to a reference.
